Assays:
Cytidine Deaminase (CDA) [1] = biological target: T1, Cytidine Deaminase (CDA) (Homo sapiens, UniProt P32320, K27Q); experiment: HPLC analysis of enzymatic deamination reactions; assay type: biochemical; conditions: after 60 minutes
Cytidine Deaminase (CDA) [2] = biological target: T1, Cytidine Deaminase (CDA); experiment: CDA-mediated deamination monitored by emission; conditions: for k1 / k2: Michaelis-Menten differential equations; for k−1: Michaelis-Menten, values assumed to be ≤10% of k1 values; for Km: calculated from k1, k−1 and k2
Cytidine Deaminase (CDA) [3] = biological target: T1, Cytidine Deaminase (CDA); experiment: CDA-mediated deamination monitored by absorbance; conditions: for k1 / k2: Michaelis-Menten differential equations; for k−1: Michaelis-Menten, values assumed to be ≤10% of k1 values; for Km: calculated from k1, k−1 and k2
[4] = pseudo-first order fit to emission curves
[5] = pseudo-first order fit, emission (Em)
[6] = pseudo-first order fit to absorption curves
[7] = pseudo-first order fit, absorption (Abs)

T1 sequence (P32320 whole entry K27Q): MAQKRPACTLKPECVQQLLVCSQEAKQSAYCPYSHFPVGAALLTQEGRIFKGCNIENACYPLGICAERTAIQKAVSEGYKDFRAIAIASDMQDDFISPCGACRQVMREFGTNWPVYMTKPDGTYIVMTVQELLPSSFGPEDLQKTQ

Question: Which results are given for `Cc1sc([C@@H]2O[C@H](CO)[C@@H](O)[C@H]2O)c2[nH]c(=O)nc(N)c12` [^mthC]?
Answer: conversion to corresponding U analogue by CDA (HPLC) (Cytidine Deaminase (CDA) [1]): complete conversion; k1 (Cytidine Deaminase (CDA) [2]; emission (Em)): 710000 ± 180000 M⁻¹ s⁻¹; k2 (Cytidine Deaminase (CDA) [2]; emission (Em)): 45 ± 2.3 s⁻¹; k−1 (Cytidine Deaminase (CDA) [2]; emission (Em)): 0.071 s⁻¹; Km (Cytidine Deaminase (CDA) [2]; emission (Em)): 63 µM; kapp (Cytidine Deaminase (CDA) [2]; [4]): 5.7 ± 0.1 s^–1; kapp (Cytidine Deaminase (CDA) [2]; [5]): 5.7 ± 0.1 x 10^−3 s^−1; t1/2 (Cytidine Deaminase (CDA) [2]; [5]): 2 ± 0.13 min; k1 (Cytidine Deaminase (CDA) [3]; absorption (Abs)): 750000 ± 160000 M⁻¹ s⁻¹; k2 (Cytidine Deaminase (CDA) [3]; absorption (Abs)): 56 ± 5.9 s⁻¹; k−1 (Cytidine Deaminase (CDA) [3]; absorption (Abs)): 0.075 s⁻¹; Km (Cytidine Deaminase (CDA) [3]; absorption (Abs)): 75 µM; kapp (Cytidine Deaminase (CDA) [3]; [6]): 6.1 ± 0.2 s^–1; kapp (Cytidine Deaminase (CDA) [3]; [7]): 6.1 ± 0.2 x 10^−3 s^−1; t1/2 (Cytidine Deaminase (CDA) [3]; [7]): 1.83 ± 0.033 min

Question: What does the source list for `Nc1nc(=O)[nH]c2c([C@@H]3O[C@H](CO)[C@@H](O)[C@H]3O)scc12` [^thC]?
Answer: conversion to corresponding U analogue by CDA (HPLC) (Cytidine Deaminase (CDA) [1]): complete conversion; k1 (Cytidine Deaminase (CDA) [2]; emission (Em)): 950000 ± 140000 M⁻¹ s⁻¹; k2 (Cytidine Deaminase (CDA) [2]; emission (Em)): 46 ± 5.3 s⁻¹; k−1 (Cytidine Deaminase (CDA) [2]; emission (Em)): 0.095 s⁻¹; Km (Cytidine Deaminase (CDA) [2]; emission (Em)): 49 µM; kapp (Cytidine Deaminase (CDA) [2]; [4]): 7.4 ± 0.1 s^–1; kapp (Cytidine Deaminase (CDA) [2]; [5]): 7.4 ± 0.1 x 10^−3 s^−1; t1/2 (Cytidine Deaminase (CDA) [2]; [5]): 1.57 ± 0.033 min; k1 (Cytidine Deaminase (CDA) [3]; absorption (Abs)): 1.01e+06 ± 470000 M⁻¹ s⁻¹; k2 (Cytidine Deaminase (CDA) [3]; absorption (Abs)): 34 ± 7.2 s⁻¹; k−1 (Cytidine Deaminase (CDA) [3]; absorption (Abs)): 0.101 s⁻¹; Km (Cytidine Deaminase (CDA) [3]; absorption (Abs)): 34 µM; kapp (Cytidine Deaminase (CDA) [3]; [6]): 7.2 ± 0.2 s^–1; kapp (Cytidine Deaminase (CDA) [3]; [7]): 7.2 ± 0.2 x 10^−3 s^−1; t1/2 (Cytidine Deaminase (CDA) [3]; [7]): 1.53 ± 0.083 min

Question: For `Nc1nc(=O)[nH]c2c([C@@H]3O[C@H](CO)[C@@H](O)[C@H]3O)snc12` [^tzC], which “conversion to corresponding U analogue by CDA (HPLC)” value (Cytidine Deaminase (CDA) [1]) is on record?
Answer: complete conversion

Question: And the k1 (Cytidine Deaminase (CDA) [2]; emission (Em))?
Answer: 1.06e+06 ± 320000 M⁻¹ s⁻¹

Question: And the k2 (Cytidine Deaminase (CDA) [2]; emission (Em))?
Answer: 4.6 ± 1.3 s⁻¹

Question: What about the “k−1” value (Cytidine Deaminase (CDA) [2]; emission (Em)) of the same compound?
Answer: 0.106 s⁻¹

Question: And the Km (Cytidine Deaminase (CDA) [2]; emission (Em))?
Answer: 4.4 µM

Question: And the kapp (Cytidine Deaminase (CDA) [2]; [4])?
Answer: 4.1 ± 0.1 s^–1

Question: What about the kapp (Cytidine Deaminase (CDA) [2]; [5]) of the same compound?
Answer: 4.1 ± 0.1 x 10^−3 s^−1

Question: And the t1/2 (Cytidine Deaminase (CDA) [2]; [5])?
Answer: 2.83 ± 0.167 min

Question: And the k1 (Cytidine Deaminase (CDA) [3]; absorption (Abs))?
Answer: 1.04e+06 ± 10000 M⁻¹ s⁻¹

Question: And the k2 (Cytidine Deaminase (CDA) [3]; absorption (Abs))?
Answer: 3.2 ± 0.3 s⁻¹

Question: And the “k−1” value (Cytidine Deaminase (CDA) [3]; absorption (Abs))?
Answer: 0.104 s⁻¹

Question: And the Km (Cytidine Deaminase (CDA) [3]; absorption (Abs))?
Answer: 3.1 µM

Question: What about the kapp (Cytidine Deaminase (CDA) [3]; [6]) of the same compound?
Answer: 3.3 ± 0.1 s^–1

Question: What about the kapp (Cytidine Deaminase (CDA) [3]; [7]) of the same compound?
Answer: 3.3 ± 0.1 x 10^−3 s^−1

Question: And the t1/2 (Cytidine Deaminase (CDA) [3]; [7])?
Answer: 3.5 ± 0.267 min

Reference: paper PMC8295196 (Organic & biomolecular chemistry, 2021)
